Source: patent US20170312301A1, “SKIN BARRIER FUNCTION-IMPROVING AGENT AND COMPOSITION FOR IMPROVING SKIN BARRIER FUNCTION” (SHOWA DENKO K.K., priority 2014, published 2017)

How the values were obtained:
occludin = assay: Test for evaluating TJ-forming ability: occludin immunostaining fluorescence intensity in Skin Model slices; format: cell-based; settings: 1 w/v %, relative to non-applied group
[1] = system: Skin Model (type EP1-200); assay: Test for evaluating TJ-forming ability: transepidermal water loss (TEWL) of Skin Model; format: cell-based; settings: 1 w/v % on surface of Skin Model, 24 hours
Description: Skin Model (type “EP1-200” manufactured by KURABO INDUSTRIES LTD.) was cultured before 24 hours at 37° C. under 5% CO2. Next, an inositol derivative (composition thereof will be described below) dissolved in purified water in each concentration of 0.1, 0.5, and 1 w/v % was added to the surface of Skin Model, and culturing was further performed for 24 hours. Next, the inositol derivative was removed, Skin Model was washed three times with a phosphate buffer solution, and transepidermal water loss (TEWL) thereof was measured. For the measurement of TEWL, a cyclone-type moisture-transpiration meter (manufactured by […]) was used. The inositol derivative used was analyzed by using liquid chromatography-mass spectrometry (LC-MS), and the results are as follows. […] As for a control, prepared were a group added with nothing in place of the inositol derivative and a group added with the same amount of purified water in place of the inositol derivative, and TEWL was measured in the same manner as above. In addition, for comparison, prepared was a group in which myo-inositol dissolved in purified water in a concentration of 1 w/v % was added in place of the inositol derivative, and TEWL was measured in the same manner as above.

claudin-1 (CLDN1) gene = assay: Promoting effect on TJ-related gene expression: claudin-1 (CLDN1) gene (quantitative real-time PCR, standardized to GAPDH); format: cell-based, human; settings: SVHK cells, 1 μM, 48 hours, purified water control = 1.00
Description: (§1) Human epidermal cells (SVHK cells) which were established from introduction of SV40 gene into human epidermal cells, were seeded on a plastic petri dish at a seeding density of 10,000 cells/cm^2 and cultured for 24 hours in Dulbecco's Modified Eagle's Medium (DMEM, manufactured by Sigma-Aldrich Co. LLC.) containing 10% fetal bovine serum. Next, to the medium of SVHK cells, 1 μM inositol derivative (composition thereof will be described below) dissolved in purified water was added to the final concentration of 1 μM, and culturing was further performed for 48 hours. […] The inositol derivative used was analyzed by using liquid chromatography-mass spectrometry (LC-MS), and the results are as follows. […] Next, quantitative real-time PCR was performed using this cDNA as a template, and the expression levels of claudin-1 (CLDN1) gene and occludin (OCL) gene in SVHK cells of each group were quantified. In addition, the expression level of glyceraldehyde-3-phosphate dehydrogenase (GAPDH) which is a housekeeping gene in which variation is not observed in the expression by adding a compound, as an internal standard gene, was quantified, and based on the expression levels of GAPDH gene in SVHK cells of each group, the expression levels of CLDN1 gene and OCL gene were standardized. […]

TRPV4 gene = assay: Promoting effect on TRPV4 gene expression (quantitative real-time PCR, standardized to GAPDH); format: cell-based, human; settings: SVHK cells, 1 μM, 48 hours, purified water control = 1.00
Description: as §1, with “cells, an” for “cells, 1 μM”, “hours. As for a control, in place of 1 μM inositol derivative, the same amount of purified water was added to SVHK cells, and the cells were cultured in the same manner as above.” for “hours.”, “of TRPV4” for “of claudin-1 (CLDN1) gene and occludin (OCL)”, “of TRPV4” for “of CLDN1 gene and OCL”

occludin (OCL) gene = assay: Promoting effect on TJ-related gene expression: occludin (OCL) gene (quantitative real-time PCR, standardized to GAPDH); format: cell-based, human; settings: SVHK cells, 1 μM, 48 hours, purified water control = 1.00
Description: as §1

O[C@H]1[C@H](O)[C@@H](O)[C@H](O)[C@@H](O)[C@H]1O [Myo-inositol, myo-inositol]
Fluorescence intensity (relative value) (occludin): 3.32 relative value | TEWL [1]: 30.7 ± 2.9 g/(h · m^2) | Expression levels of gene (relative value) CLDN1 (claudin-1 (CLDN1) gene): 1.57 relative value | Expression levels of TRPV4 gene (relative value) (TRPV4 gene): 0.84 relative value | Expression levels of gene (relative value) OCL (occludin (OCL) gene): 0.94 relative value
